In ChEMBL document CHEMBL1144199, “Design, synthesis, and biological evaluation of new mitonafide derivatives as potential antitumor drugs” (Bioorg Med Chem, 2008) one finds Kapp and IC50 data, which are given here for 17 molecules.

One experiment relates to DNA. The experiment can be described thus: Displacement of ethidium bromide from calf thymus DNA assessed as ratio of concentration of ethidium in ethidium DNA complex to drug concentration by fluorometric assay. The note with it: Bos taurus. Type of experiment: nucleic-acid assay.
In a further experiment the test system is HT-29. The experiment can be described thus: Cytotoxicity against human HT-29 cells after 144 hrs. Format: functional, cell-based. The note with it: HT-29, 144 h.

On to `CN(C)CCNc1ccc2c3c(cccc13)C(=O)N(CCN(C)C)C2=O`, for which, in the experiment with DNA, the Kapp is 2.3 ×10⁷ /M. In addition, the 50% inhibitory concentration (IC50) (as a rule, the concentration at which inhibition is half-maximal) in the experiment with HT-29 worked out at 160 nM. As to `CN(C)CCNC(=O)c1cccc2c(=O)c3ccccc3[nH]c12`, in the experiment with HT-29, half-maximal inhibition (IC50) was put at 1700 nM. For the molecule `CN(C)CCNc1c(N)cc2c3c(cccc13)C(=O)N(CCN(C)C)C2=O`, in the experiment on DNA, the Kapp came out at 4.5 ×10⁷ /M. Also, inhibition in the experiment with HT-29 was half-maximal at 810 nM (IC50). The matching figures for `CN(C)CCCNc1ccc2c3c(cccc13)C(=O)N(CCCN(C)C)C2=O`: 1.3 ×10⁷ /M and 1400 nM.

For `CN(C)CCNc1c([N+](=O)[O-])cc2c3c(cccc13)C(=O)N(CCN(C)C)C2=O`, in the experiment with DNA, the Kapp is 7.7 ×10⁷ /M. This molecule also returned an IC50 in the experiment with HT-29 of 120 nM. Consider `NCCNc1c([N+](=O)[O-])cc2c3c(cccc13)C(=O)N(CCN)C2=O`, for which the Kapp in the experiment on DNA stood at 5.3 ×10⁷ /M. Further, the half-maximal inhibitory concentration (IC50) in the experiment with HT-29 was 860 nM. In the case of `CN(C)CCN1C(=O)c2cccc3c(NCCNCCO)ccc(c23)C1=O`, in the experiment on DNA, the Kapp worked out at 2.4 ×10⁷ /M. Moreover, in the experiment with HT-29, inhibition was half-maximal at 770 nM (IC50).

Turning to `CN(C)CCCNc1c([N+](=O)[O-])cc2c3c(cccc13)C(=O)N(CCCN(C)C)C2=O`, the Kapp in the experiment with DNA stood at 7 ×10⁷ /M. Moreover, the half-maximal inhibitory concentration (IC50) in the experiment on HT-29 was determined as 140 nM. As for `CN(C)CCN1C(=O)c2cccc3cc([N+](=O)[O-])cc(c23)C1=O` [MITONAFIDE], the Kapp with DNA was 3.4 ×10⁶ /M. Also, the half-inhibitory concentration (IC50) in the experiment on HT-29 turned out to be 220 nM. On to `CN(C)CCCN1C(=O)c2cccc3c(NCCN(C)C)ccc(c23)C1=O`, for which the Kapp in the experiment with DNA worked out at 1.5 ×10⁷ /M. Also, the midpoint of inhibition in the experiment on HT-29, the IC50, lay at 1700 nM. In the case of `CCN(CC)CCNc1ccc2c3c(cccc13)C(=O)N(CCN(C)C)C2=O`, the Kapp with DNA worked out at 2.3 ×10⁷ /M. The IC50 with HT-29 is 2100 nM. The matching figures for `CN(C)CCCNc1c(N)cc2c3c(cccc13)C(=O)N(CCCN(C)C)C2=O`: 3.9 ×10⁷ /M and 16800 nM. For the molecule `CN(C)CCNc1ccc2c3c(cccc13)C(=O)N(CCCN(C)CCCN1C(=O)c3cccc4c(NCCN(C)C)ccc(c34)C1=O)C2=O`, the Kapp in the experiment with DNA is 2.3 ×10⁸ /M. Also, in the experiment with HT-29, inhibition was half-maximal at 60 nM (IC50).

For the molecule `CN(C)CCCNc1ccc2c3c(cccc13)C(=O)N(CCN(C)C)C2=O`, the Kapp with DNA amounted to 1.9 ×10⁷ /M. Moreover, the IC50 in the experiment on HT-29 came out at 930 nM. Take `CN(C)CCNC(=O)c1ccc(NCCN(C)C)c2c(=O)c3ccccc3[nH]c12`: in the experiment with HT-29, the 50% inhibitory concentration (IC50) stood at 44 nM.

With `CN(C)CCCNc1ccc2c3c(cccc13)C(=O)N(CCCN(C)CCCN1C(=O)c3cccc4c(NCCCN(C)C)ccc(c34)C1=O)C2=O`, the Kapp in the experiment on DNA stood at 1.1 ×10⁸ /M. This molecule showed an IC50 in the experiment with HT-29 of 100 nM. The like results for `CCN(CC)CCCNc1ccc2c3c(cccc13)C(=O)N(CCN(C)C)C2=O` were, in that order, 1.9 ×10⁷ /M and 890 nM.
